We go through one compound from patent US9493453B2, “Piperazinyl pyrimidine derivatives, preparation method and use thereof” (INSTITUTE OF PHARMACOLOGY AND TOXICOLOGY ACADEMY OF …, priority 2012, dated 2016).

One experiment concerns mice rhinitis model. Kind of experiment: Mice rhinitis model experiment (OVA-sensitized BALB/c mice). As to conditions: Example 8 compound 1 μg/Kg. The format is in vivo. Here is the method: Mice Rhinitis Model Experiment
Female BALB/c mice (6-8 weeks) were sensitized with chicken ovalbumin (OVA, Sigma-Aldrich, St Louis, Mo., USA). The compound of the present invention (for example, the compound of Example 8) was administered to nasal mucosa, at a dose 1 μg/Kg. Glucocorticoid hormonal drug budesonide, a first-line clinical drug, was used as positive control, at a dose 1.28 mg/Kg. Meanwhile, there were provided a normal group wherein the mice were not sensitized and not administered, and an OVA group wherein the mice were sensitized and not administered. The following five indicators were detected: the number of sneezing, the number of nasal scratching within 10 min after administration; IL-4 level in bronchoalveolar lavage fluid; serum IgE level; lung tissue inflammation score. Lung tissue inflammation score was rated according to a single blind method: inflammation was divided into four levels from mild to severe, marked as 0-3 scores: 0 representing no detected inflammation; 1 representing occasional inflammatory cells being visible; 2 representing bronchus or blood vessel being surrounded by eosinophils, but less than five cell layers; 3 representing bronchus or blood vessel being surrounded by a large number of eosinophils, with 5 or more cell layers.

The target of another experiment is T1, CCR4 receptor (Homo sapiens, UniProt P51679).
T1 construct: cDNA fragments of receptor open reading frame were respectively inserted into pcDI; expressed in transfected cells; host or cells: HEK293 cells, transiently transfected by electroporation with pCDI-CCR4
T1 sequence (P51679 1-360): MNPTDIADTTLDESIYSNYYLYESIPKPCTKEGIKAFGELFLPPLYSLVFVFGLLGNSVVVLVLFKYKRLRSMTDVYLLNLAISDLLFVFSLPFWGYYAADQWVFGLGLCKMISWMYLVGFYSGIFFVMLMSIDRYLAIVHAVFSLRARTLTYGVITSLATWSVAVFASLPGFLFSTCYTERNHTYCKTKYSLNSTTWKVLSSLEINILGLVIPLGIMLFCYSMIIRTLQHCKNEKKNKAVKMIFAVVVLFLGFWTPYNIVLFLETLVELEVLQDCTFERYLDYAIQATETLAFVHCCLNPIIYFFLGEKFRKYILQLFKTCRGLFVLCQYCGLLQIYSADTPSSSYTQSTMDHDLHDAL
Nature of the experiment: Inhibition of MDC/TARC/C27 mediated chemotactic response of CCR4-transfected HEK293 cells (Boyden chamber). The format is cell-based. As to conditions: chemotactic inhibition rate, compound 1 μM, HEK293 cells transfected with pCDI-CCR4, 5 hours. The source says:
Whether or not compounds 1-14 of the present invention can inhibit MDC (Peprotech) mediated chemotactic response of HEK293 cells was studied by using Boyden chamber (Neuro Probe, Inc.).
1. Construction of Receptor Expression Plasmid:
cDNA fragments including human chemokine receptor open reading frame were obtained by the following method: CCR4 receptor was cloned from a cDNA library of K562 cells through polymerase chain reaction (PCR). Primers were designed according to the sequence of Gen-Bank™ accession: CCR4 (NM_005508.2). cDNA fragments of receptor open reading frame were respectively inserted into pcDI (vector transformed in the chamber: eukaryotic expression vector obtained by replacing a BglII KpnI fragment of pcDNA3 (Invitrogen Corporation) plasmid with a BglII KpnI fragment of pCI (Promega Corporation) plasmid) expression vector so as to make them effectively express in HEK293 cells.
HEK293 cells were cultured in RPMI 1640 (Life Technologies, Inc.) containing 10% heat-inactivated fetal bovine serum, 100 U/mL penicillin, 100 μg/mL streptomycin. Each 4×10^6 HEK293 cells/400 μL were transiently transfected through electroporation with 15 μg chemokine receptor expression plasmids, under the condition of 120 V for 20 ms, the instrument used being electric pulse generator (Electro Square porator ECM 830, BTX, San Diego, Calif.). After 36-48 hr, chemotactic assay was carried out.
3. The Inhibitory Effect on MDC/TARC/C27 Mediated Chemotactic Response of HEK293 Cells
Chemokines MDC/TARC/C27 were diluted to 10 ng/mL with RPMI1640 (Life Technologies, Inc.), 0.1% BSA (Sigma), and added to lower holes in a 48-hole chemotactic chamber, 27.5 μL each hole. Eukaryotic expression plasmids pCDI-CCR4 were electrically shifted to HEK293 cells, and cultured normally for 36 hr. The cells were digested, re-suspended with RPMI1640, 10% FBS (Life Technologies, Inc.), and subjected to rotary incubation at 37° C. for 6.5 hours. The cells were washed twice with RPMI1640, and suspended in RPMI1640, 0.1% BSA, with a final concentration of 1×10^6/mL. The cells and the candidate compound dissolved in DMSO (Sigma) were subjected to rotary incubation at room temperature for half an hour, the final concentration of the candidate compound being 1 μM, and the final concentration of DMSO being 0.1%, and then added to upper holes in the chemotactic chamber, 55 μL each hole. The two layers were spaced by a polycarbon membrane with pore size of […] (Neuro Probe, Inc.). The chemotactic reaction was carried out in 5% CO2 at 37° C. for 5 hours. There were three groups of control in the experiment, wherein the first group was positive control, in which the transfected cells were directly added to upper holes without incubated with the candidate compound, while chemokines MDC/TARC/C27 were added to lower holes. The second group was negative control, in which the transfected cells were directly added to upper holes without incubated with the candidate compound, while RPMI1640, 0.1% BSA were added to lower holes. The third group was solvent DMSO control of the candidate compound, in which the transfected cells and DMSO were incubated at room temperature, the final concentration of DMSO being 0.1%, while chemokines MDC/TARC/C27 were added to lower holes. After completion of the chemotactic reaction, the membrane was removed, fixed and stained, and, at 400× high magnification, five horizons were randomly selected to count the cells, which were then summed. The ratio of the sum of the numbers of cells in five horizons at high magnification in each experimental group to the sum of the numbers of cells in five horizons at high magnification in the negative control group is obtained as Chemotactic Index (CI). Chemotactic inhibition rate was calculated as follows: […]

The mark [1] stands for this setting: OVA-sensitized female BALB/c mice, nasal mucosa, budesonide 1.28 mg/Kg, within 10 min after administration.
The mark [2] stands for this setting: versus OVA-sensitized group, budesonide 1.28 mg/Kg.

As a reminder, the inhibition is the drop in the measured response relative to a control, in per cent.

Read-outs that look alike come from different tables or passages of the source.

With `O=C([C@H]1CCCCN1)N1CCN(c2nc(Cl)cc(NCc3ccc(Cl)cc3Cl)n2)CC1` [Compound 8, (R)-{4-{4-chloro-6-[(2,4-dichlorobenzyl)amino]pyrimidin-2-yl}piperazin-1-yl}(piperidin-2-yl)methanone], the IL-4 in the experiment with mice rhinitis model (IL-4 level in bronchoalveolar lavage fluid, OVA-sensitized mice, budesonide 1.28 mg/Kg) came out at 3.7 ± 0.3 pg/mL. Besides, in the experiment on mice rhinitis model (setting [1]), the Nasal scratching stood at 8.0 ± 0.6 times/10 mins and the Sneezing amounted to 29.0 ± 3.5 times/10 mins. For the same compound, the Inflammation score in the experiment with mice rhinitis model (lung tissue inflammation score 0-3, single blind, OVA-sensitized mice, budesonide 1.28 mg/Kg) amounted to 2.2 ± 0.4. Moreover, in the experiment on mice rhinitis model (serum IgE level, OVA-sensitized mice, budesonide 1.28 mg/Kg), the IgE is 2861 ± 49 ng/mL. The “serum IgE level (result in words)” value in the experiment on mice rhinitis model (versus OVA-sensitized and normal control groups, budesonide 1.28 mg/Kg) is recorded as “higher than that of the normal control group”. Moreover, in the experiment on mice rhinitis model (setting [2]), the “IL-4 level in bronchoalveolar lavage fluid (result in words)” value is “significantly lower than that of the OVA-sensitized group”, the “lung tissue inflammation score (result in words)” value is given as “lower than that of the OVA-sensitized group” and the “number of sneezing (result in words)” value was “could significantly reduce the number of sneezing”. In addition, in the experiment on mice rhinitis model (versus other groups), the “number of nasal scratching (result in words)” value was “lower than that of any of other groups”. Besides, the inhibition at 1 µM at CCR4 receptor (chemokine C27 10 ng/mL, read-out: C27 inhibition rate) is 69.8%. Moreover, the inhibition at 1 µM at CCR4 receptor (chemokine MDC 10 ng/mL, read-out: MDC inhibition rate) stood at 79.2%. In addition, at CCR4 receptor (chemokine TARC 10 ng/mL, read-out: TARC inhibition rate), the inhibition at 1 µM came out at 60.4%.
